Laboratory results reported in patent US20230025932A1, “NOVEL FUNCTIONALIZED LACTONES AS MODULATORS OF THE 5-HYDROXYTRYPTAMINE RECEPTOR 7 AND THEIR METHOD OF USE” (Temple University-Of The Commonwealth System of Higher …, priority 2019, published 2023).

Experiments:
5-HT7 receptors [1] = target: T1, 5-HT7 receptors (Homo sapiens, UniProt P34969); assay: Radiolabeled binding ([3H]LSD competition, membrane fractions)
5-HT7 receptors [2] = target: T1, 5-HT7 receptors; assay: Functional cAMP enzyme fragment complementation assay (HitHunter cAMP), antagonist Kb; assay type: cell-based; set-up: expressed in transfected cells; settings: cells expressing human 5HT7, antagonist mode with EC70 5-HT
Protocol: Functional efficacy of the compounds of the disclosure on 5-HT7 serotonin receptors are measured in a cell based cAMP enzyme fragment complementation assay using the HitHunter cAMP assay (DiscoveRx). Cells stably expressing human 5HT7 receptors are plated in 96-well plates at 4000 cells/well, 16-20 hours prior to assay in growth media (Ultraculture medium, 2 mM GlutaMax and G418 1 mg/mL. Serial dilutions of the agonist, 5-hydroxytryptamine (5-HT), are prepared in a final concentration range of 10 μM to 10 nM. Compounds of the disclosure are prepared in 3-fold serial dilutions to obtain a final concentration range of 10 μM to 0.1 nM. Compounds of the disclosure are tested for agonist activity in the absence of 5-HT and antagonist activity in the presence of 5-HT. For the cAMP assay, the protocol is followed according to the instructions provided by the supplier. Briefly, cells are incubated with a compound of the disclosure for 30 minutes at 37° C. prior to addition of EC70 concentration of 5-HT. After an additional 30 minutes, cAMP antibody/cell lysis solution is added (20 μL/well) and incubated for 60 minutes at room temperature. cAMP XS+EA reagent is added (20 μL/well) and incubated for 2 hours at room temperature. Luminescence is read on the Envision Multilabel plate reader.

T1 sequence (P34969 whole entry, the tested form may be a part): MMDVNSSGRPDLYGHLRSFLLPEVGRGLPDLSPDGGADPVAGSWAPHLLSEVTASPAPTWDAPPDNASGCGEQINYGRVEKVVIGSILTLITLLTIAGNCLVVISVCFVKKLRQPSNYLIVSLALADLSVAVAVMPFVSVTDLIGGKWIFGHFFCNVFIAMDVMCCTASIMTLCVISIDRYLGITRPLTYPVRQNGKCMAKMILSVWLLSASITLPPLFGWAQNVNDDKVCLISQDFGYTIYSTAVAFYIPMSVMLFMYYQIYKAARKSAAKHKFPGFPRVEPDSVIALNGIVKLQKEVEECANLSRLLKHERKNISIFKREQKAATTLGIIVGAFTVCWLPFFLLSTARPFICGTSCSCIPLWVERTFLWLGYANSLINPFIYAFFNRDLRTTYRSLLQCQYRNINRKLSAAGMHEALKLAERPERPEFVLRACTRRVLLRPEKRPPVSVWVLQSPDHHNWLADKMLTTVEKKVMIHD

Row | SMILES | Ki (5-HT7 receptors [1]) | Kb (5-HT7 receptors [2])
1 | CS(=O)(=O)NCC(=O)N1CCC2(CC1)C[C@H](CCN1CCN(c3cccc(Cl)c3)CC1)OC2=O [Compound 9] | 50 to 200 nM | 10 to 100 nM
2 | CC(=O)NCC(=O)N1CCC2(CC1)C[C@H](CCN1CCN(c3ccc(F)cc3)CC1)OC2=O [Compound 6] |  | 10 to 100 nM
